For two compounds, Inhibition and ID90 results are on record in ChEMBL document CHEMBL1122787, “Acetylenic nucleosides. 3. Synthesis and biological activities of some 5-ethynylpyrimidine nucleosides” (1984).

SMILES strings stand for the structures. The source made the active and inactive calls. The calls are words filed in the database; no cut-off is given here.

Assay [1] concerns B16. As to the kind of experiment: Compound was evaluated for antitumor activity against B16 melanoma cell lines in culture; IN-Inactive at 10E-4 concentration. The format is functional, cell-based. The conditions noted are these: Mus musculus.
Assay [2] deals with L1210. The experiment in a line: Compound was evaluated for antitumor activity against L-1210 cell lines in culture; IN-Inactive at 10E-4 concentration. Type of assay: functional, cell-based. The conditions noted are these: Mus musculus.
Assay [3] concerns L1210. As to the kind of experiment: Compound was evaluated for antitumor activity against L-1210 cell lines in culture. Type of assay: functional, Mus musculus.
Assay [4] deals with B16. The experiment in a line: Compound was evaluated for antitumor activity against B16 melanoma cell lines in culture. Type of assay: functional, Mus musculus.
The nature of assay [5]: Compound was evaluated for its concentration for antiviral activity against the replication of herpes simplex virus type 1 in monkey kidney cells. The format is functional, Cercopithecidae.

`C#Cc1cn([C@@H]2O[C@H](CO)[C@@H](O)[C@@H]2N=[N+]=[N-])c(=O)[nH]c1=O`: the Inhibition result with B16 [1] and with L1210 [2] was “inactive” throughout.
Regarding `C#Cc1cn([C@@H]2O[C@H](CO)[C@@H](O)[C@@H]2F)c(=O)nc1N`, the Inhibition with L1210 [3] and in the assay with B16 [4] was around 60 µM in each case. Also, the ID90 in assay [5] stood at 50 µM.
